In US7476670B2, “Purine derivatives, method for preparing, pharmaceutical compositions and novel use” (Aventis Pharma S.A., priority 2003, dated 2009) one finds IC50, inhibition and MIC data, which are given here for two compounds.

For orientation: inhibition means the change of the read-out against control, counted positive when it falls. As usually defined, the MIC is the lowest concentration found to suppress growth.

Molecules are shown by their SMILES.

One assay has as its target FAK (Homo sapiens, UniProt Q05397). Briefly: Assay for inhibition of FAK activity (autophosphorylation). The format is biochemical. Particulars: fluorescence polarization, ATP 1 μM; read-out: IC50s expressed as micromolar. As to the method: The inhibition of the kinase activity is determined by fluorescence polarization, the autophosphorylation of FAK is detected by adding an anti-phosphoprotein antibody coupled to a fluorescent label.
The assay is carried out in a final volume of 30 μl; all the reagents are prepared in a buffer: • 50 mM HEPES pH 7.5 • 0.03% triton X100 • 10 mM MgCl2 • 5% Glycerol • 1 mM DTT 10 μl of the 10-times concentrated inhibitor are added to 5 μl of enzyme (100 ng final concentration), and 5 μl of incubation buffer and 10 μl of ATP (1 μM final concentration) are added.
For orientation: Polarisation of emitted light reports the rotation of a fluorescent probe.

For a further assay, the target named is T1, SRC kinase (Homo sapiens, UniProt P12931).
T1 construct: purchased Upstate Biotechnology 14-117
Briefly: Assay for inhibition of SRC kinase activity. It counts as biochemical. Particulars: fluorescence polarization, read-out: percentage inhibition at 20 μM. The procedure, abridged: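 Enzyme (12 U/ml final) preincubated 5 min with inhibitor, then PolyGluTyr 4/1 (150 ng/ml) and ATP (5 μM) added in HEPES/NaOH pH 7.6 with MgCl2, MnCl2 and Na2VO4. After 20 min at ambient temperature, phosphopeptide detected by fluorescence polarization with labelled anti-phosphopeptide antibody; percent inhibition reported at 20 μM.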

For assay [1], the target named is Cyclin Dependent kinase 1 (CDK1) (Homo sapiens, UniProt P06493). In words: Assay for inhibition of CDK1 activity. It counts as biochemical. Particulars: [33P]ATP, read-out: percentage inhibition at 20 μM. As to the method:
The inhibition of the kinase activity of Cyclin Dependent kinase 1 (CDK1) is determined by measuring the phosphorylation of its substrate peptide.
The test is carried out in a final volume of 50 μl.
The incubation buffer is as follows:
• 50 mM Tris/HCl pH 7.5 • 10 mM MgCl2 • […] Na2VO4 • 2 mM DTT • 40 mM Beta-glycerophosphate • 0.1 mg/ml BSA 5 μl of the 10-times concentrated inhibitor are added to 25 μl of incubation buffer containing 0.04 U/μl final concentration of the enzyme; 10 μl of incubation buffer containing 12.5 μM final concentration of peptide substrate are then added and, finally, 10 μl of incubation buffer containing 50 μM ATP and radiolabeled ATP, [^33P]ATP (0.5 μCi), are added. The reaction is stopped after incubation for 40 minutes at ambient temperature. • Results obtained expressed as percentage inhibition at 20 μM • Example 8 93% • Example 30 99% 5) Assay for Inhibition of Abl Activity

For a further assay, the target named is CaCiv1 (Candida albicans, UniProt A0A1D8PH53). In words: Assay for inhibition of CIV-CDK (CIV1) activity. The format is biochemical. An excerpt:
1) Assay for Inhibition of CIV-CDK (CIV1) Activity
a) Preparation of the Reagents

The test system of another assay is Candida glabrata. In words: Minimum inhibitory concentration in liquid medium, micro method (NCCLS M27-A). It counts as cell-based. Particulars: Nakaseomyces glabratus; at least 80% inhibition of growth, read after 24-48 h at 37° C., RPMI 1640; read-out: MIC Candida glabrata. As to the method: (§1) The assay is carried out in a final volume of 40 μl; all the reagents are prepared in a buffer: • 50 mM HEPES pH 7.5 • 0.03% triton X100 • 10 mM MgCl2 • 5% Glycerol • 1 mM DTT 10 μl of the 10-times concentrated inhibitor are added to 5 μl of enzyme (75 ng final concentration), and 5 μl of peptide (1 μM final concentration), then 2.5 μl of incubation buffer containing 40 μM ATP and 2.5 μl of radiolabeled ATP, [^33P]ATP (500 nCi), are added. After incubation for 15 minutes at ambient temperature, 10 μl of incubation buffer containing 192 nM of substrate. […] Reference method for broth dilution antifungal susceptibility testing of yeasts. Approved Standard M27-A. NCCLS, Villanova, Pa.); the minimum concentration with which a visible decrease is observed in the cloudiness of the cell growth (at least 80% compared to a control without product) is the Minimum Inhibitory Concentration (MIC) of the antifungal agent with respect to the strain tested.
(§2) RPMI 1640 medium (liquid) without L-glutamine is supplemented with L-glutamine (0.3 g/l or 10.5 ml of a solution at 200 mM) and buffered with 34.54 g/l (0.165 M) of morpholinepropanesulfonic acid (MOPS). The medium is sterilized by filtration. 100 μl of RPMI medium are distributed into each well of a 96-well plate. The appropriate volume. of the antifungal solution is distributed in the first column of the microplate and supplemented with 200 μl of medium. Doubling dilutions are made so as to establish a range of 11 concentrations in each line of the microplate. The 12th well of each row will serve as a growth control. The cell suspension is prepared from a culture (liquid or agar) or from a frozen vial, and is diluted in RPMI medium so as to obtain a cell suspension at 5×10^3−2×10^4 cells/ml. 100 μl of the cell suspension are distributed in the microplate. For all species of Candida, the MIC is read after 24-48 h, and for Cryptococcus and Aspergillus after 48-72 h, of incubation at 37° C. in a normal atmosphere. The MIC is read by visual reading, determining the well which contains the lowest dose of antifungal agent which causes at least 80% inhibition of the growth of the fungus.

Another assay deals with Candida albicans. The description is as above. Particulars: at least 80% inhibition of growth, read after 24-48 h at 37° C., RPMI 1640, read-out: MIC Candida albicans. It counts as cell-based. As to the method: as §1, §2

Sequence of FAK (Q05397 whole entry, species assumed): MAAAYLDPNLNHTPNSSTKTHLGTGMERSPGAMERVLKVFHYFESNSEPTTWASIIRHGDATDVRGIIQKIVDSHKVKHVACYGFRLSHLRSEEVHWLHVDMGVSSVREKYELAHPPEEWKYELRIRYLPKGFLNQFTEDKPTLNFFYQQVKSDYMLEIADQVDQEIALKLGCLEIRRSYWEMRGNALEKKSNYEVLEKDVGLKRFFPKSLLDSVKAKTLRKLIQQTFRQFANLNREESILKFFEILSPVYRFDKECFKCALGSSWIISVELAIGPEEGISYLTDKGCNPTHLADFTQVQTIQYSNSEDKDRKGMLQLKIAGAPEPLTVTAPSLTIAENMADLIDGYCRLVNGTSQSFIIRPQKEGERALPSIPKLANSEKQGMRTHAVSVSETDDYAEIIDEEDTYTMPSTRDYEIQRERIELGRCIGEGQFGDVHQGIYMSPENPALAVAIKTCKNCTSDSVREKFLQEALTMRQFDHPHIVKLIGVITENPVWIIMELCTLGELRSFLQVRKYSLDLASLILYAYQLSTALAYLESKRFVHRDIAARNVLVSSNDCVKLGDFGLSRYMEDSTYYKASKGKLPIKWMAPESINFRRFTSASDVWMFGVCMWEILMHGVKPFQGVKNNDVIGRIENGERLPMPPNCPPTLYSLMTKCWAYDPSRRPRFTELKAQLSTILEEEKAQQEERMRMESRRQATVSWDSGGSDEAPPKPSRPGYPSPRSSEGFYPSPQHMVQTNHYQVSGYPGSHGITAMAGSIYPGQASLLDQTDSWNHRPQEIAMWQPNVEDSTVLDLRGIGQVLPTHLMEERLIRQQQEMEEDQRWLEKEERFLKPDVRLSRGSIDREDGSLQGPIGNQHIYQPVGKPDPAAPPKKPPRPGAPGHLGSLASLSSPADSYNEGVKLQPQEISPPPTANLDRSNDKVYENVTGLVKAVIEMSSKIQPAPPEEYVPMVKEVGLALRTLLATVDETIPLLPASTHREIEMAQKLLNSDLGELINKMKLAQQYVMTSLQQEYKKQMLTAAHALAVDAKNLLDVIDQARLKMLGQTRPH
Sequence of CaCiv1 (A0A1D8PH53 entry or part of it): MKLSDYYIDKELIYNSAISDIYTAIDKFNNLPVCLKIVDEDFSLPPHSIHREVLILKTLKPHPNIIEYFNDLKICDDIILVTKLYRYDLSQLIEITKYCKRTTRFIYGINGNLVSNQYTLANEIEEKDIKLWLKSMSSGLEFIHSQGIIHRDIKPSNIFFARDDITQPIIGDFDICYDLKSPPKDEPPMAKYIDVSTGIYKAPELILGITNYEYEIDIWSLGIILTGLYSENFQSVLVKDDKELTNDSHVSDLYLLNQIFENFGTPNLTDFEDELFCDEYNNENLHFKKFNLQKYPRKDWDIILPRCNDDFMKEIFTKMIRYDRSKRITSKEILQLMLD
T1 sequence (P12931 whole entry): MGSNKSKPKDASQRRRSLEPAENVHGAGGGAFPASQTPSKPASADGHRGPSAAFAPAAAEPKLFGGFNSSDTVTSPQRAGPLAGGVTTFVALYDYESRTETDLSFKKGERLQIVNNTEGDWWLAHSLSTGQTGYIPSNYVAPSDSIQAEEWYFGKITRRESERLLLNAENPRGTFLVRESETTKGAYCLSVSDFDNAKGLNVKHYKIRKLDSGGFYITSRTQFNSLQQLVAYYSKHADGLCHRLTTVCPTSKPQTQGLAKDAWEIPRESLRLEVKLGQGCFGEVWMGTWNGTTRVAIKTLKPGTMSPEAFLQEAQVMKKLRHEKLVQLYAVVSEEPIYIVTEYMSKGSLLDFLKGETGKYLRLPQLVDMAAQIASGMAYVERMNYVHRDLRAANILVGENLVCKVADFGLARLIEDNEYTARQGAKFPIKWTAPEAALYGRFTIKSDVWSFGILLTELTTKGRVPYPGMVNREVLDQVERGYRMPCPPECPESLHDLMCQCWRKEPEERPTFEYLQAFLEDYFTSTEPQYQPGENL
Sequence of Cyclin Dependent kinase 1 (CDK1) (P06493 whole entry, species assumed): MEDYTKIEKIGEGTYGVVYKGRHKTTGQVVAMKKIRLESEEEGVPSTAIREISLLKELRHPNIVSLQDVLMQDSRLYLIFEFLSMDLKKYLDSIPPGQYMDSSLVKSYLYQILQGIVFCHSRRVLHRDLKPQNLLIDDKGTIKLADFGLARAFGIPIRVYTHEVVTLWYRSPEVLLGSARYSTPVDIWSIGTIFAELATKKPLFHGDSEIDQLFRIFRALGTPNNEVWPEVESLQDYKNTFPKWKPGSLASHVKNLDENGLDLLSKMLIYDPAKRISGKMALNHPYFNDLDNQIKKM
Sequence of Cyclin Dependent kinase 1 (CDK1) (P14635 whole entry partner, species assumed): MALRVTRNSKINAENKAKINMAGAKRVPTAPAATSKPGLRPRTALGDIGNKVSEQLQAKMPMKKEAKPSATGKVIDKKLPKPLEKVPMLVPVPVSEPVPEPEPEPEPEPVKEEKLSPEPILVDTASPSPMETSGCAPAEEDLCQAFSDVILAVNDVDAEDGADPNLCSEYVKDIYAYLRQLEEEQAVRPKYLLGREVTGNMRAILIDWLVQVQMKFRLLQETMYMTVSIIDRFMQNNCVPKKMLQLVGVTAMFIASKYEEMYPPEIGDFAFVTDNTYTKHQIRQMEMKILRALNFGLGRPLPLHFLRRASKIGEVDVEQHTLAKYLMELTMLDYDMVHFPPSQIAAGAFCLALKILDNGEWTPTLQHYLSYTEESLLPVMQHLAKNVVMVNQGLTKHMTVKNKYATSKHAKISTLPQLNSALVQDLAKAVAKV

As for `Cl.N[C@H]1CC[C@H](Nc2nc(-n3cnc4cc(Cl)c(Cl)cc43)c3nc[nH]c3n2)CC1` [Example 8, Trans-N-[6-(5,6-dichloro-1H-benzimidazol-1-yl)-9H-purin-2-yl]-1,4-cyclohexanediamine hydrochloride], the IC50 at FAK was 2 µM; against CaCiv1, 1300 nM. Further, the inhibition at 20 µM on SRC kinase was 98%; in assay [1], 93%. Further, the MIC in the assay on Candida glabrata and in the assay on Candida albicans was 16 µg/mL each time.
For the compound `Cl.Cl.N[C@H]1CC[C@H](Nc2nc(N3CCc4cc([N+](=O)[O-])ccc43)c3nc[nH]c3n2)CC1` [Example 30, Trans-N-[6-(2,3-dihydro-5-nitro-1H-indol-1-yl)-9H-purin-2-yl]-1,4-cyclohexanediamine dihydrochloride], the IC50 on FAK stood at 1 µM; at CaCiv1 it was 100 nM. Also, the inhibition at 20 µM (at SRC kinase; in assay [1]) was 99% throughout. The MIC amounted to 64 µg/mL in the assay with Candida glabrata and 32 µg/mL in the assay on Candida albicans.
